Test results from article PMC5477519, “Leukocyte integrin Mac-1 regulates thrombosis via interaction with platelet GPIbα” (Nature Communications, 2017).

Experiments:
[1] = target: T1, αMI-domain of integrin Mac-1 (αMβ2, CD11b/CD18) (Homo sapiens, UniProt P11215); assay: SPR (Biacore […], CM5 chip, steady-state affinity); supported by inhibition of GPIbα binding to αMI-domain (IC50 […])
T1 construct: gene ITGAM; αMI-domain, human WT

[2] = target: T2, αMI-domain double mutant of integrin Mac-1 (αMβ2, CD11b/CD18) (Homo sapiens, UniProt P11215, R232A/T229A); assay: SPR (Biacore […], ~[…] RU, steady-state affinity); low-level binding, no consistent interaction at ~[…] RU
T2 construct: gene ITGAM; αMI-domain, human mutant
T2 sequence (P11215 150-328 T229A/R232A limits assumed): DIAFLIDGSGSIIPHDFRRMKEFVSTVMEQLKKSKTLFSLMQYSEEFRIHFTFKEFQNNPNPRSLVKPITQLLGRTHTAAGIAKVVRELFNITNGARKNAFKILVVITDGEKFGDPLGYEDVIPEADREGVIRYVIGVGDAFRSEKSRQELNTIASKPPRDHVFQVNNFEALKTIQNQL

T1 sequence (P11215 150-328 limits assumed): as the sequence (P11215 150-328 T229A/R232A limits assumed) above, with A80T, A83R counted along it

- Kd [1]: ~100 µM
- Kd [2]: ~244 µM
Structure (SMILES): N[C@H]1C(O)O[C@H](CO)[C@@H](O)[C@@H]1O (some centres unmarked) [glucosamine]
